This is an account of results in patent US20250171452A1 (Viscient Bio, Inc., priority 2022, published 2025).

pIC50: −log10 of the molar value.

Chain of IDO2 (Q6ZQW0 whole entry, species assumed): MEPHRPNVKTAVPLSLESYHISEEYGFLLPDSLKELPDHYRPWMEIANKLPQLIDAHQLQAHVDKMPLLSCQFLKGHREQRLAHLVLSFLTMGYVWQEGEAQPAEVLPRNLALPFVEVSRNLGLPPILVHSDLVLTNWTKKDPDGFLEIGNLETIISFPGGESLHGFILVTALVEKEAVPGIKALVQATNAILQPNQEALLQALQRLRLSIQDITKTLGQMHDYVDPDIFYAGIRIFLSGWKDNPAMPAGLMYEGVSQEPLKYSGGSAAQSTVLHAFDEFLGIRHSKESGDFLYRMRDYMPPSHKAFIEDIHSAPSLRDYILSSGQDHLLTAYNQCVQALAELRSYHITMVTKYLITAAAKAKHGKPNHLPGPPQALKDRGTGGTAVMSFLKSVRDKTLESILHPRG

This assay has as its target IDO2 (Homo sapiens (Human), UniProt Q6ZQW0). The assay is described as follows: Cellular IDO2 assay, doxycycline and 5-methoxy-L-tryptophan medium, colorimetric. Type of assay: cell-based. Particulars: cellular level, 72 h incubation, signal at 480 nm.
Method: IDO2 inhibition at the cellular level was evaluated in vitro using the following procedure.
Using cell culture medium, the volume of the suspension was adjusted to achieve a cell concentration of 20,000 cells/well (90 uL/well).
5-Methoxy-L-tryptophan powder was dissolved in the culture medium to a concentration of 10 mM, then filtered and sterilized with a 0.22 um filter. Doxycycline powder was dissolved in ddH2O to a concentration of 100 ug/ml, then filtered and sterilized with a 0.22 um filter. 5-aminolevulinic acid powder was dissolved in ddH2O to a concentration of 400 mM, then filtered and sterilized with a 0.22 um filter. A 2× Assay medium was then by diluting the doxycycline (from 100 ug/ml to 2 ug/ml) and 5-Methoxy-L-tryptophan (from 10 mM to 5 mM) in culture medium. The 5-aminolevulinic acid solution was also added to the solution (diluting the concentration from 400 mM to 2 mM) to get a 2× working solution.
After incubation, plates and reagents were allows to equilibrate to room temperature. […] Trichloroacetic acid powder was dissolved in ddH2O to prepare 6.1N trichloroacetic acid. […] The plates were incubated at 55° C. for 40 minutes, and then centrifuged for 10 min at 2500 rpm. […] Measurement of the signal was performed using Envision at 480 nm. Throughout the foregoing process, care was taken to prevent exposure to light.
The pIC50 is −log10 of the IC50, conventionally taken in molar units. Compound `O=C1c2c(ccc(F)c2F)-n2c1nc1ccccc1c2=O` [Compound 60, 7,8-Difluoroindolo[2,1-b]quinazoline-6,12-dione] showed a pIC50 of more than 7.30.

`O=C1c2cc(F)ccc2-n2c1nc1c(NCc3ccc(F)cc3)cccc1c2=O` [Compound 115, 8-Fluoro-4-((4-fluorobenzyl)amino)indolo[2,1-b]quinazoline-6,12-dione] showed a pIC50 of 6.30 to 7.30.

The compound `CS(=O)(=O)NCc1ccc2nc3n(c(=O)c2c1)-c1ccc(F)cc1C3=O` [Compound 145, N-((8-fluoro-6,12-dioxo-6,12-dihydroindolo[2,1-b]quinazolin-2-yl)methyl)methanesulfonamide] showed a negative logarithm of the IC50 (pIC50) of more than 7.30. Then `COC(=O)c1ccc2nc3n(c(=O)c2c1)-c1ccc(F)cc1C3=O` [Compound 150, methyl 8-fluoro-6,12-dioxo-6,12-dihydroindolo[2,1-b]quinazoline-2-carboxylate], with more than 7.30; and `O=C1c2cc(F)ccc2-n2c1nc1cc(-c3c[nH]cn3)ccc1c2=O` [Compound 89, 8-fluoro-3-(1H-imidazol-4-yl)indolo[2,1-b]quinazoline-6,12-dione], with 6.30 to 7.30; and `CS(=O)(=O)c1ccc2c(c1)C(=O)c1nc3cc(Cl)cc(Cl)c3c(=O)n1-2` [Compound 87], with more than 7.30. Then `O=C1c2cc([N+](=O)[O-])ccc2-n2c1nc1ccc(F)c(F)c1c2=O` [Compound 108], with 6.30 to 7.30; and `CO/N=C1/c2cc(F)ccc2-n2c1nc1cc(-n3ccnc3)ccc1c2=O` [Compound 97, (Z)-8-fluoro-3-(1H-imidazol-1-yl)-6-(methoxyimino)indolo[2,1-b]quinazolin-12(6H)-one], with more than 7.30. Then `NC(=O)c1ccc2nc3n(c(=O)c2c1)-c1ccc(F)cc1C3=O` [Compound 149, 8-fluoro-6,12-dioxo-6,12-dihydroindolo[2,1-b]quinazoline-2-carboxamide], with more than 7.30. `CN(C)Cc1ccc2nc3n(c(=O)c2c1)-c1ccc(S(=O)(=O)Cc2ccccc2)cc1C3=O` [Compound 127] had a pIC50 of more than 7.30.

Take `O=C1c2cc(Br)ccc2-n2c1nc1c(Nc3ccc(F)cc3)cccc1c2=O` [Compound 121, 8-bromo-4-((4-fluorophenyl)amino)indolo[2,1-b]quinazoline-6,12-dione]: the pIC50 was 6.30 to 7.30. The result for `CN(C)S(=O)(=O)c1ccc2c(c1)C(=O)c1nc3cc(F)ccc3c(=O)n1-2` [Compound 79] reads more than 7.30. Then `O=C1c2cc(F)ccc2-n2c1nc1ccc(-c3c[nH]cn3)cc1c2=O` [Compound 151, 8-fluoro-2-(1H-imidazol-4-yl)indolo[2,1-b]quinazoline-6,12-dione], with more than 7.30; and `N#Cc1ccc2c(c1)C(=O)c1nc3cc(F)cc(F)c3c(=O)n1-2` [Compound 114], with 6.30 to 7.30; and `O=c1c2cccc(Nc3ccc(F)cc3)c2nc2n1-c1ccc(F)cc1C2=NO` (stereo in doubt) [Compound 123, (Z)-8-Fluoro-4-((4-fluorophenyl)amino)-6-(hydroxyimino)indolo[2,1-b]quinazolin-12(6H)-one], with 6.30 to 7.30.

In turn, `NS(=O)(=O)NCc1ccc2c(=O)n3c(nc2c1)C(=O)c1cc(F)ccc1-3` [Compound 88] gave a negative-log IC50 (pIC50) of more than 7.30. The result for `O=C1c2cc(F)ccc2-n2c1nc1cc(-n3ccnc3)ccc1c2=O` [Compound 98, 8-fluoro-3-(1H-imidazol-1-yl)indolo[2,1-b]quinazoline-6,12-dione] reads more than 7.30; that for `NC(=O)c1ccc2c(c1)Cc1nc3cc(F)ccc3c(=O)n1-2` [Compound 80], 6.30 to 7.30; that for `O=C1c2cc(F)ccc2-n2c1nc1ccc(CNc3ccccn3)cc1c2=O` [Compound 141, 8-fluoro-2-((pyridin-2-ylamino)methyl)indolo[2,1-b]quinazoline-6,12-dione], 6.30 to 7.30.

`O=C1c2cc(F)ccc2-n2c1nc1ccc(-n3ccnc3)cc1c2=O` [Compound 137, 8-fluoro-2-(1H-imidazol-1-yl)indolo[2,1-b]quinazoline-6,12-dione]: the pIC50 is more than 7.30. The compound `CON=C1c2cc(F)ccc2-n2c1nc1cc(CNC(C)=O)ccc1c2=O` (stereo in doubt) [Compound 94, (Z)—N-((8-fluoro-6-(methoxyimino)-12-oxo-6,12-dihydroindolo[2,1-b]quinazolin-3-yl)methyl)acetamide] showed a pIC50 of 6.30 to 7.30. Then `NC(=O)NCc1ccc2nc3n(c(=O)c2c1)-c1ccc(F)cc1C3=O` [Compound 139, 1-((8-fluoro-6,12-dioxo-6,12-dihydroindolo[2,1-b]quinazolin-2-yl)methyl)urea], with more than 7.30; and `CO/N=C1\c2cc(F)ccc2-n2c1nc1cc(CNS(N)(=O)=O)ccc1c2=O` [Compound 99], with more than 7.30; and `NCc1cccc2nc3n(c(=O)c12)-c1ccc(F)cc1C3=O` [Compound 102], with more than 7.30. The result for `CO/N=C1/c2cc(C#N)ccc2-n2c1nc1ccc(CN3CCOCC3)cc1c2=O` [Compound 131, (Z)-6-(methoxyimino)-2-(morpholinomethyl)-12-oxo-6,12-dihydroindolo[2,1-b]quinazoline-8-carbonitrile] reads more than 7.30. `CC(C)(C)OC(=O)NCc1ccc2c(=O)n3c(nc2c1)C(=O)c1cc(F)ccc1-3` [Compound 92] showed a pIC50 of more than 7.30. The result for `N#Cc1ccc2c(c1)C(=O)c1nc3cc(Cl)cc(Cl)c3c(=O)n1-2` [Compound 113] reads more than 7.30. `O=C1c2cc(SCc3ccccc3)ccc2-n2c1nc1cc(F)cc(F)c1c2=O` [Compound 112] gave a negative-log IC50 (pIC50) of more than 7.30. Then `O=C1c2cc(SCc3ccccc3)ccc2-n2c1nc1c(Cl)cccc1c2=O` [Compound 117], with more than 7.30; and `CON=C1c2cc(F)ccc2-n2c1nc1cc(CNC(=O)OCc3ccccc3)ccc1c2=O` (stereo in doubt) [Compound 93, benzyl (Z)-((8-fluoro-6-(methoxyimino)-12-oxo-6,12-dihydroindolo[2,1-b]quinazolin-3-yl)methyl)carbamate], with 6.30 to 7.30; and `O=C1c2cc(F)ccc2-n2c1nc1cc(NCc3ccc(F)cc3)ccc1c2=O` [Compound 81], with more than 7.30. In turn, `O=C1c2cc([N+](=O)[O-])ccc2-n2c1nc1cccc(Br)c1c2=O` [Compound 55, 1-Bromo-8-nitroindolo[2,1-b]quinazoline-6,12-dione] had a negative-log IC50 (pIC50) of less than 6.30. The result for `[2H]C([2H])(Nc1ccc2c(=O)n3c(nc2c1)C(=O)c1cc(F)ccc1-3)c1ccc(F)cc1` [Compound 69] reads more than 7.30. Then `[2H]C([2H])(Nc1ccc2c(=O)n3c(nc2c1)C(=O)c1cc(C#N)ccc1-3)c1ccc(F)cc1` [Compound 70], with more than 7.30. Then `O=C1c2cc(C(F)(F)F)ccc2-n2c1nc1ccccc1c2=O` [Compound 53, 8-(Trifluoromethyl)indolo[2,1-b]quinazoline-6,12-dione], with more than 7.30; and `O=C1c2cc([N+](=O)[O-])ccc2-n2c1nc1cc(Cl)cc(Cl)c1c2=O` [Compound 56, 1,3-Dichloro-8-nitroindolo[2,1-b]quinazoline-6,12-dione], with 6.30 to 7.30. Turning to `NCc1cccc2nc3n(c(=O)c12)-c1ccc(F)cc1C3=O` [Compound 101, 1-(aminomethyl)-8-fluoroindolo[2,1-b]quinazoline-6,12-dione], the pIC50 is 6.30 to 7.30.
